This is an account of results in US8901118B2, “Compounds and methods for kinase modulation, and indications therefor” (Plexxikon Inc., priority 2010, dated 2014).

The target of one experiment is T1, BCR-KIT BaF3 cells (Homo sapiens, UniProt P10721).
T1 construct: fused on or other part: P11274 (Breakpoint cluster region protein)
Kind of experiment: BaF3 BCR-KIT cell proliferation assay (ATPlite). As to conditions: read-out: Inhibition of Cell Proliferation IC50, BCR/BaF3 Kit. The format is cell-based. In a few lines: (§1)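 BaF3 cells expressing BCR fusions were plated at 10,000 cells/well without IL-3, and MV-4-11 cells at 25,000 cells/well. Cells were treated the next day with an 8-point 1:3 dilution series (top 10 μM final) and incubated 3 days at 37 °C. ATPlite luminescence gave cell number, from which IC50 was fitted.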
Background: Cellular ATP, detected with luciferase, serves as a proxy for viable cell number.

The target of another experiment is T2, BCR-FMS BaF3 cells (Homo sapiens, UniProt P07333).
T2 construct: fused on or other part: P11274 (Breakpoint cluster region protein)
T2 sequence (P07333 582-910): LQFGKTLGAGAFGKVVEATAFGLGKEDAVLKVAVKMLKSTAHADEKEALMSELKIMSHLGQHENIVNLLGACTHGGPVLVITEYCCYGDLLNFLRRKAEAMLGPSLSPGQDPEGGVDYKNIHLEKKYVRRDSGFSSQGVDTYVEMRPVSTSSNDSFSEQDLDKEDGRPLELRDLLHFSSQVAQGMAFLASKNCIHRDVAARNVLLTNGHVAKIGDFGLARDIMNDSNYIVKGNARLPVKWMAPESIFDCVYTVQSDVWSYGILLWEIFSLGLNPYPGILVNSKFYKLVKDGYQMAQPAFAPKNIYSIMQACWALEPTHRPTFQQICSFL
Kind of experiment: BaF3 BCR-FMS cell proliferation assay (ATPlite). It counts as cell-based. Conditions: read-out: Inhibition of Cell Proliferation IC50, BCR/BaF3 Fms. The essentials: as §1

The target of another experiment is Fms kinase (Homo sapiens, UniProt P07333). As to the kind of experiment: Fms kinase biochemical activity assay (AlphaScreen, biotin-(E4Y)10 phosphorylation). As to conditions: 100 μM ATP; read-out: Biochemical Inhibition IC50 Fms. In a few lines: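 Fms kinase (1 ng/well) phosphorylating 30 nM biotin-(E4Y)10 with 100 μM ATP in 25 mM Hepes pH 7.5, MgCl2/MnCl2, 5% DMSO, 20 min at 30 °C. Phosphotyrosine detected by AlphaScreen streptavidin donor and PY20 acceptor beads; IC50 from signal versus compound concentration.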
In general terms: Bead proximity is the source of the signal in Alpha formats.

T1 sequence (P10721 589-937): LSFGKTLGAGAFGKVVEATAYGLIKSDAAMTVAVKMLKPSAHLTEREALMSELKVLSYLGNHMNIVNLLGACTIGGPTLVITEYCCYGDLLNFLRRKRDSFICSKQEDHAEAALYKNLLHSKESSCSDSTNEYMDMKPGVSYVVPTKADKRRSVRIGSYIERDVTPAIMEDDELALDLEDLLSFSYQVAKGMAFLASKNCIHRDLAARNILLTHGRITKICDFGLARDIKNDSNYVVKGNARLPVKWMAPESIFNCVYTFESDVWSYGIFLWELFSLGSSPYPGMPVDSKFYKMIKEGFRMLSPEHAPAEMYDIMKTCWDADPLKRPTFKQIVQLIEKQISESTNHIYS
Sequence of Fms kinase (P07333 20-972): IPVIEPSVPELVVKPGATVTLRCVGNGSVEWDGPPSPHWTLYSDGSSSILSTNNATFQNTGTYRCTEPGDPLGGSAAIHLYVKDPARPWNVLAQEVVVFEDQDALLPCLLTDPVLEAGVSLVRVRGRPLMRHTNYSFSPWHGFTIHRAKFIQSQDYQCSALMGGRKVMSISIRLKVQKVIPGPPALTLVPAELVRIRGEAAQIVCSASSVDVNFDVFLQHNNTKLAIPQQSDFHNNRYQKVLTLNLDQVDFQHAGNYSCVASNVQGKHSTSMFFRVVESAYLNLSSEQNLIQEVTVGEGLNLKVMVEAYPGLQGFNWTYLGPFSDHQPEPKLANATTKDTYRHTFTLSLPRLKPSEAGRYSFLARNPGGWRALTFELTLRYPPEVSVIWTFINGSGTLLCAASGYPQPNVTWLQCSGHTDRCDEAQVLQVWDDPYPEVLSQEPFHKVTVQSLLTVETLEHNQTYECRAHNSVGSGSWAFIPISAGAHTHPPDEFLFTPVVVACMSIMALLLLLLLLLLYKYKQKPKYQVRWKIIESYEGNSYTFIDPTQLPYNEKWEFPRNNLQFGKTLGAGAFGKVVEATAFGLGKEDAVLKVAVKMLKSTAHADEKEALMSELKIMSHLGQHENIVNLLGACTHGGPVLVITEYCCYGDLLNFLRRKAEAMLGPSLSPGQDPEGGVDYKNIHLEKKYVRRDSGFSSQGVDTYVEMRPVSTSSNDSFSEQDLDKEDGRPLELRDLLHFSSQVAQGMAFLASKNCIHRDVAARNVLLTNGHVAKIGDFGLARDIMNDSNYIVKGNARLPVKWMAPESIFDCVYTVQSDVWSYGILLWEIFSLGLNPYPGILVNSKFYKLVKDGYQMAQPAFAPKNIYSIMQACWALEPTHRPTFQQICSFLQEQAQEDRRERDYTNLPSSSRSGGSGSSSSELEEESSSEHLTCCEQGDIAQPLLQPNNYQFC

For the compound `CCOc1ccc(Nc2ncc(Cc3c[nH]c4ncc(C)cc34)cn2)cn1` [Compound P-3027, (6-Ethoxy-pyridin-3-yl)-[5-(5-methyl-1H-pyrrolo[2,3-b]pyridin-3-ylmethyl)-pyrimidin-2-yl]-amine], the IC50 on BCR-KIT BaF3 cells is below 0.1 µM; at BCR-FMS BaF3 cells, below 0.01 µM; on Fms kinase, below 0.01 µM.
Regarding `CCn1cc(Nc2ccc(Cc3c[nH]c4ncnc(C)c34)c(F)n2)cn1` [Compound P-4013, (1-Ethyl-1H-pyrazol-4-yl)-[6-fluoro-5-(4-methyl-7H-pyrrolo[2,3-d]pyrimidin-5-ylmethyl)-pyridin-2-yl]-amine], the values for the IC50 at BCR-KIT BaF3 cells, at BCR-FMS BaF3 cells and on Fms kinase were below 1 µM, below 0.01 µM and below 0.01 µM, respectively.
In the case of `COCCOc1ncnc2[nH]cc(Cc3ccc(Nc4ccc(OC)nc4)nc3F)c12` [Compound P-4019, {6-Fluoro-5-[4-(2-methoxy-ethoxy)-7H-pyrrolo[2,3-d]pyrimidin-5-ylmethyl]-pyridin-2-yl}-(6-methoxy-pyridin-3-yl)-amine], the IC50 at BCR-KIT BaF3 cells is below 1 µM; on BCR-FMS BaF3 cells it was below 0.01 µM; on Fms kinase, below 0.01 µM.
As for `CCOc1ccc(Nc2ccc(Cc3c[nH]c4ncnc(OC)c34)c(F)n2)cn1` [Compound P-4005, (6-Ethoxy-pyridin-3-yl)-[6-fluoro-5-(4-methoxy-7H-pyrrolo[2,3-d]pyrimidin-5-ylmethyl)-pyridin-2-yl]-amine], the IC50 on BCR-KIT BaF3 cells is below 0.1 µM; at BCR-FMS BaF3 cells it was below 0.01 µM; at Fms kinase, below 0.01 µM.
As for `CCc1ccc(Nc2ncc(Cc3c[nH]c4ncc(C)cc34)cn2)cc1` [Compound P-3025, (4-Ethyl-phenyl)-[5-(5-methyl-1H-pyrrolo[2,3-b]pyridin-3-ylmethyl)-pyrimidin-2-yl]-amine], the IC50 at BCR-KIT BaF3 cells was below 0.01 µM; on BCR-FMS BaF3 cells, below 0.01 µM; at Fms kinase it was below 0.1 µM.
For the compound `COc1ccc(Nc2ccc(C(=O)c3c[nH]c4ncnc(C5CC5)c34)c(F)n2)cn1` [Compound P-4022, (4-cyclopropyl-7H-pyrrolo[2,3-d]pyrimidin-5-yl)-[2-fluoro-6-(6-methoxy-pyridin-3-ylamino)-pyridin-3-yl]-methanone], the figures for the IC50 at BCR-KIT BaF3 cells, on BCR-FMS BaF3 cells and on Fms kinase were below 1 µM, below 0.1 µM and below 0.1 µM, respectively.
With `CCn1cc(Nc2ccc(Cc3c[nH]c4ncnc(OCCOC)c34)c(F)n2)cn1` [Compound P-4014, (1-Ethyl-1H-pyrazol-4-yl)-{6-fluoro-5-[4-(2-methoxy-ethoxy)-7H-pyrrolo[2,3-d]pyrimidin-5-ylmethyl]-pyridin-2-yl}-amine], the IC50 is above 1 µM at BCR-KIT BaF3 cells, below 0.1 µM at BCR-FMS BaF3 cells and below 0.01 µM at Fms kinase.
For the compound `Fc1nc(NC2CCC(F)(F)CC2)ccc1Cc1c[nH]c2ncnc(NC3CC3)c12` [Compound P-4129, N-cyclopropyl-5-[[6-[(4,4-difluorocyclohexyl)amino]-2-fluoro-3-pyridyl]methyl]-7H-pyrrolo[2,3-d]pyrimidin-4-amine], the IC50 on BCR-KIT BaF3 cells was below 1 µM; on BCR-FMS BaF3 cells, below 0.1 µM; on Fms kinase, below 0.1 µM.
On to `Cc1cnc2[nH]cc(Cc3cnc(Nc4cc(C5CC5)n[nH]4)nc3)c2c1` [Compound P-3032, (5-Cyclopropyl-2H-pyrazol-3-yl)-[5-(5-methyl-1H-pyrrolo[2,3-b]pyridin-3-ylmethyl)-pyrimidin-2-yl]-amine], for which the IC50 was below 1 µM on BCR-KIT BaF3 cells, below 1 µM at BCR-FMS BaF3 cells and above 1 µM at Fms kinase.
Regarding `CCn1cc(Nc2ccc(Cc3c[nH]c4ncnc(OC)c34)c(F)n2)cn1` [Compound P-4011, (1-Ethyl-1H-pyrazol-4-yl)-[6-fluoro-5-(4-methoxy-7H-pyrrolo[2,3-d]pyrimidin-5-ylmethyl)-pyridin-2-yl]-amine], the IC50 was above 1 µM at BCR-KIT BaF3 cells, below 0.01 µM at BCR-FMS BaF3 cells and below 0.01 µM on Fms kinase.
Take `Fc1nc(NC2CCC(F)(F)CC2)ccc1Cc1c[nH]c2ncnc(NCC(F)(F)F)c12` [Compound P-4128, 5-[[6-[(4,4-difluorocyclohexyl)amino]-2-fluoro-3-pyridyl]methyl]-N-(2,2,2-trifluoroethyl)-7H-pyrrolo[2,3-d]pyrimidin-4-amine]: the IC50 was below 1 µM on BCR-KIT BaF3 cells, below 0.1 µM on BCR-FMS BaF3 cells and below 0.1 µM at Fms kinase.
With `Clc1cnc2[nH]cc(Cc3cnc(NC4CC4)nc3)c2c1` [Compound P-3005, [5-(5-Chloro-1H-pyrrolo[2,3-b]pyridin-3-ylmethyl)-pyrimidin-2-yl]-cyclopropyl-amine], the IC50 on BCR-KIT BaF3 cells was above 1 µM; at BCR-FMS BaF3 cells it was below 1 µM; on Fms kinase, below 1 µM.
Turning to `Cc1cncc(Nc2ccc(Cc3c[nH]c4ncnc(C5CC5)c34)c(F)n2)c1` [Compound P-4038, [5-(4-Cyclopropyl-7H-pyrrolo[2,3-d]pyrimidin-5-ylmethyl)-6-fluoro-pyridin-2-yl]-(5-methyl-pyridin-3-yl)-amine], the values for the IC50 on BCR-KIT BaF3 cells, on BCR-FMS BaF3 cells and on Fms kinase were below 1 µM, below 0.1 µM and below 0.1 µM, respectively.
For `CCOc1ncnc2[nH]cc(Cc3ccc(Nc4ccc(C)nc4)nc3F)c12` [Compound P-4017, [5-(4-Ethoxy-7H-pyrrolo[2,3-d]pyrimidin-5-ylmethyl)-6-fluoro-pyridin-2-yl]-(6-methyl-pyridin-3-yl)-amine], the figures for the IC50 on BCR-KIT BaF3 cells, at BCR-FMS BaF3 cells and at Fms kinase were below 1 µM, below 0.01 µM and below 0.01 µM, respectively.
`COc1ccc(Nc2ncc(Cc3c[nH]c4ncc(C)cc34)cn2)cc1F` [Compound P-3023, (3-Fluoro-4-methoxy-phenyl)-[5-(5-methyl-1H-pyrrolo[2,3-b]pyridin-3-ylmethyl)-pyrimidin-2-yl]-amine]: the IC50 at BCR-KIT BaF3 cells, at BCR-FMS BaF3 cells and at Fms kinase was below 0.1 µM in each case.
For the compound `Fc1nc(Nc2ccc(C3CC3)nc2)ccc1Cc1c[nH]c2ncnc(NCC(F)(F)F)c12` [Compound P-4130, 5-[[6-[(6-cyclopropyl-3-pyridyl)amino]-2-fluoro-3-pyridyl]methyl]-N-(2,2,2-trifluoroethyl)-7H-pyrrolo[2,3-d]pyrimidin-4-amine], the IC50 on BCR-KIT BaF3 cells was above 1 µM; at BCR-FMS BaF3 cells it was below 0.01 µM; at Fms kinase, below 0.01 µM.
Consider `CCOc1ccc(Nc2ccc(C(=O)c3c[nH]c4ncnc(OC)c34)c(F)n2)cn1` [Compound P-4024, [6-(6-Ethoxy-pyridin-3-ylamino)-2-fluoro-pyridin-3-yl]-(4-methoxy-7H-pyrrolo[2,3-d]pyrimidin-5-yl)-methanone], for which the IC50 is below 1 µM at BCR-KIT BaF3 cells, below 0.1 µM at BCR-FMS BaF3 cells and below 1 µM on Fms kinase.
`CCc1ccc(Nc2ccc(C(=O)c3c[nH]c4ncnc(C5CC5)c34)c(F)n2)cn1` [Compound P-4029, (4-Cyclopropyl-7H-pyrrolo[2,3-d]pyrimidin-5-yl)-[6-(6-ethyl-pyridin-3-ylamino)-2-fluoro-pyridin-3-yl]-methanone]: the IC50 was below 0.1 µM on BCR-KIT BaF3 cells, below 0.1 µM on BCR-FMS BaF3 cells and below 0.01 µM on Fms kinase.
With `CCCOc1ccc(Nc2ncc(Cc3c[nH]c4ncc(C)cc34)cn2)cc1` [Compound P-3024, [5-(5-Methyl-1H-pyrrolo[2,3-b]pyridin-3-ylmethyl)-pyrimidin-2-yl]-(4-propoxy-phenyl)-amine], the IC50 at BCR-KIT BaF3 cells is below 0.1 µM; on BCR-FMS BaF3 cells, below 0.01 µM; at Fms kinase it was below 0.1 µM.
Consider `COc1ccc(Nc2ccc(Cc3c[nH]c4ncnc(OC)c34)c(F)n2)cn1` [Compound P-4001, [6-Fluoro-5-(4-methoxy-7H-pyrrolo[2,3-d]pyrimidin-5-ylmethyl)-pyridin-2-yl]-(6-methoxy-pyridin-3-yl)-amine], for which the figures for the IC50 on BCR-KIT BaF3 cells, on BCR-FMS BaF3 cells and on Fms kinase were below 1 µM, below 0.01 µM and below 0.01 µM, respectively.
For `COc1ccc(Nc2ccc(Cc3c[nH]c4ncnc(C)c34)c(F)n2)cn1` [Compound P-4002, [6-Fluoro-5-(4-methyl-7H-pyrrolo[2,3-d]pyrimidin-5-ylmethyl)-pyridin-2-yl]-(6-methoxy-pyridin-3-yl)-amine], the IC50 at BCR-KIT BaF3 cells was below 1 µM; at BCR-FMS BaF3 cells, below 0.1 µM; at Fms kinase it was below 0.1 µM.
As for `Cc1cnc2[nH]cc(Cc3ccc(Nc4ccc(C)nc4)nc3F)c2c1` [Compound P-3041, [6-Fluoro-5-(5-methyl-1H-pyrrolo[2,3-b]pyridin-3-ylmethyl)-pyridin-2-yl]-(6-methyl-pyridin-3-yl)-amine], the values for the IC50 at BCR-KIT BaF3 cells, on BCR-FMS BaF3 cells and at Fms kinase were below 1 µM, below 0.01 µM and below 0.01 µM, respectively.
